From patent publication US5817648A, “Vitamin D3 analogues having an unsaturated side chain” (Duphar International Research B.V., priority 1995, dated 1998)

Legend:
[1] = target: T1, calf thymus intracellular vitamin D receptor (VDR) (Bos taurus, UniProt Q28037); assay: Affinity to intracellular vitamin D receptor (displacement of 3H-1α,25-DHCC); assay type: binding
T1 construct: calf thymus intracellular vitamin D receptor (VDR); from tissue; host or cells: calf thymus
T1 sequence (Q28037 1-426): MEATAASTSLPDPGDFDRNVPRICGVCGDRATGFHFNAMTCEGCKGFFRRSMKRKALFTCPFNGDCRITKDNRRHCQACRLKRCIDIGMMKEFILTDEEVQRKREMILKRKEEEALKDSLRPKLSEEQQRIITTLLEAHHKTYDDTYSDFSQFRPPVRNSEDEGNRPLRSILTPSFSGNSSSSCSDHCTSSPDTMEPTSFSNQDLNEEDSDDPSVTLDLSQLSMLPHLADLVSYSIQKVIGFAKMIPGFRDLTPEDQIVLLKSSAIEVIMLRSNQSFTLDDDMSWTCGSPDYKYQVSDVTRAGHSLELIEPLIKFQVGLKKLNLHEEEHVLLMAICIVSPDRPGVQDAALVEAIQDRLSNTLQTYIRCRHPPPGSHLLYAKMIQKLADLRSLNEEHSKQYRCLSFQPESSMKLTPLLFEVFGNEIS
Description: In this assay, ^3 H-1α,25-dihydroxycholecalciferol (^3 H-1α,25-DHCC), which is specifically bound to the VDR, is replaced by the tested compounds. […] 9 times that of calcitriol. A high affinity towards the VDR is indicative for biologically active compounds.

[2] = tested on: Vitamin D binding protein (DBP); assay: Affinity to vitamin D binding protein (competition with 3H-1α,25-DHCC); conditions: DBP purified from total human serum
Description: Vitamin D binding protein (DBP) is the specific carrier for vitamin D and its metabolites in blood. The biological activity of vitamin D compounds depends on their binding to DBP, because strong binding to DBP will reduce the intracellular access to the VDR. Binding to the DBP may also influence the half-life of the vitamin D derivatives in circulation. Weak binders are rapidly metabolized, which is a favourable aspect in topical application.
In the assay, DBP is incubated with ^3 H-1α,25-DHCC and 1α,25-DHCC or with the vitamin D compounds to be investigated. To this purpose, the vitamin compounds are dissolved in ethanol in concentrations ranging from 10^-11 to […]. The percentage bound/unbound ^3 H-1α,25-DHCC is then calculated. DBP is purified from total human serum. Both 24,24-dihomo-.increment.(24-24a)-calcitriol and 24,24-dihomo-.increment.(24a-24b)-calcitriol are much weaker binders to the DBP than calcitriol (2% and 3.5% respectively).

[3] = tested on: human leukemic cell line HL-60; assay: Cell differentiation in HL-60 assay (NBT reduction); assay type: cell-based; conditions: compared with calcitriol
Description: The vitamin D compounds to be investigated are dissolved in ethanol in concentrations ranging from 10^-12 to 10^-6 M and tested for their capacity to induce cell differentiation in a HL-60 assay. In this assay, biochemical examination of the human leukemic cell line HL-60 is performed, in order to establish whether cell differentiation has taken place.
Differentiation is expressed as the maturation parameter nitroblue tetrazolium (NBT) reduction. After culturing with the known calcitriol or with the vitamin D compounds to be investigated, the percentage of cells containing black formazan deposits is determined. An increase in the percentage of NBT reducing cells indicates an increase in cell differentiation.
Proliferation and vitality of the cell cultures are established by counting the number of cells and by the trypan blue exclusion method.

C=C1/C(=C\C=C2/CCC[C@]3(C)[C@@H]([C@H](C)CC/C=C/CC(C)(C)O)CC[C@@H]23)C[C@@H](O)C[C@@H]1O [24,24-dihomo-.increment.(24-24a)calcitriol]
affinity towards the VDR relative to calcitriol ([1]; relative to calcitriol): ≤ 1% | binding to the DBP relative to calcitriol [2]: 2% | activity in inducing differentiation of HL-60 cells, times less active than calcitriol [3]: 4 times less active

C=C1/C(=C\C=C2/CCC[C@]3(C)[C@@H]([C@H](C)CCCC(C)(C)O)CC[C@@H]23)C[C@@H](O)C[C@@H]1O [Calcitriol, calcitriol]
activity in inducing differentiation and maturation of the HL-60 cells (in words) [3]: equally active

C=C1/C(=C\C=C2/CCC[C@]3(C)[C@@H]([C@H](C)CCC/C=C/C(C)(C)O)CC[C@@H]23)C[C@@H](O)C[C@@H]1O [Compound 16, (5Z,7E)-(1S,3R)-9,10-Seco-24a,24b-dihomo-(24aE)-5,7,10(19),24a-cholestatetraen-1,3,25-triol]
affinity towards the VDR, times that of calcitriol [1]: 9 times that of calcitriol | binding to the DBP relative to calcitriol [2]: 3.5% | activity in inducing differentiation and maturation of the HL-60 cells (in words) [3]: equally active
